Test system: 628569-122-R-J1-PDC complex spheroid viability
Experiment: Anticancer human tumor 628569-122-R-J1-PDC patient-derived head and neck squamous carcinoma cell line growth inhibition [CLK]
Conditions: for IC50: curve of first compound; for viability, T/C: stronger effect = lower value; active means viability on the fitted dose curve at most 10% of control; inactive means the rest
Procedure, shortened: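 Patient-derived tumor cells grown as complex spheroids with HUVEC endothelial cells and mesenchymal stem cells, treated with drug combinations. Concentrations descend in half-log steps from near clinical Cmax, or from 10 microM if Cmax unknown.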

[1] = second compound 0.0316 µM, first compound 0.0316 µM
[2] = second compound 0.0316 µM, first compound 0.1 µM
[3] = second compound 0.0316 µM, first compound 0.316 µM
[4] = second compound 0.0316 µM, first compound 1 µM
[5] = second compound 0.0316 µM, first compound 3.16 µM
[6] = second compound 0.0316 µM, first compound 10 µM
[7] = second compound 0.1 µM, first compound 0.0316 µM
[8] = second compound 0.1 µM, first compound 0.1 µM
[9] = second compound 0.1 µM, first compound 0.316 µM
[10] = second compound 0.1 µM, first compound 1 µM
[11] = second compound 0.1 µM, first compound 3.16 µM
[12] = second compound 0.1 µM, first compound 10 µM
[13] = second compound 0.316 µM, first compound 0.0316 µM
[14] = second compound 0.316 µM, first compound 0.1 µM
[15] = second compound 0.316 µM, first compound 0.316 µM
[16] = second compound 0.316 µM, first compound 1 µM
[17] = second compound 0.316 µM, first compound 3.16 µM
[18] = second compound 0.316 µM, first compound 10 µM
[19] = second compound 1 µM, first compound 0.0316 µM
[20] = second compound 1 µM, first compound 0.1 µM
[21] = second compound 1 µM, first compound 0.316 µM
[22] = second compound 1 µM, first compound 1 µM
[23] = second compound 1 µM, first compound 3.16 µM
[24] = second compound 1 µM, first compound 10 µM
[25] = second compound 3.16 µM, first compound 0.0316 µM
[26] = second compound 3.16 µM, first compound 0.1 µM
[27] = second compound 3.16 µM, first compound 0.316 µM
[28] = second compound 3.16 µM, first compound 1 µM
[29] = second compound 3.16 µM, first compound 3.16 µM
[30] = second compound 3.16 µM, first compound 10 µM
[31] = second compound 10 µM, first compound 0.0316 µM
[32] = second compound 10 µM, first compound 0.1 µM
[33] = second compound 10 µM, first compound 0.316 µM
[34] = second compound 10 µM, first compound 1 µM
[35] = second compound 10 µM, first compound 3.16 µM
[36] = second compound 10 µM, first compound 10 µM
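Further: spheroids exposed to agents for seven days before readout.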
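Wherever viability, T/C is given: 100% = DMSO vehicle control viability.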

CC(=O)O[C@H]1C(=O)[C@@]2(C)[C@H]([C@H](OC(=O)c3ccccc3)[C@]3(O)C[C@H](OC(=O)[C@H](O)[C@@H](NC(=O)c4ccccc4)c4ccccc4)C(C)=C1C3(C)C)[C@]1(OC(C)=O)CO[C@@H]1C[C@@H]2O + CN1CCN(c2cc(C(=O)Nc3cc4cc(-c5cnn(C)c5)ccc4cn3)ccn2)CC1
inactive: viability, T/C [1] 39.9% | viability, T/C [2] 34.4% | viability, T/C [3] 38% | viability, T/C [4] 41% | viability, T/C [5] 41.6% | viability, T/C [6] 54% | viability, T/C [7] 37.5% | viability, T/C [8] 33.4% | viability, T/C [9] 39.5% | viability, T/C [10] 42.7% | viability, T/C [11] 47.2% | viability, T/C [12] 67.3% | viability, T/C [13] 33.2% | viability, T/C [14] 41.9% | viability, T/C [15] 41.7% | viability, T/C [16] 41% | viability, T/C [17] 33.7% | viability, T/C [18] 49.4%
active: viability, T/C [19] 4.9% | viability, T/C [20] 5.86% | viability, T/C [21] 4.18% | viability, T/C [22] 3.31% | viability, T/C [23] 3.36% | viability, T/C [24] 4.26% | viability, T/C [25] 5.69% | viability, T/C [26] 4.99% | viability, T/C [27] 6.92% | viability, T/C [28] 3.95% | viability, T/C [29] 5.22% | viability, T/C [30] 3.46% | viability, T/C [31] 1.88% | viability, T/C [32] 4.8% | viability, T/C [33] 3.63% | viability, T/C [34] 4.24% | viability, T/C [35] 3.42% | viability, T/C [36] 1.77%
< 31.6 nM: IC50 (second compound 0.0316 µM) | IC50 (second compound 0.1 µM) | IC50 (second compound 0.316 µM) | IC50 (second compound 1 µM) | IC50 (second compound 3.16 µM) | IC50 (second compound 10 µM)

COc1ccc([C@@H](O)c2cc(-c3ncnc4cc(N5CCOCC5)ccc34)c(F)cc2Cl)nn1 + CN1CCN(c2cc(C(=O)Nc3cc4cc(-c5cnn(C)c5)ccc4cn3)ccn2)CC1
active: viability, T/C [18] 7.64% | viability, T/C [19] 5.08% | viability, T/C [20] 4.84% | viability, T/C [21] 10.1% | viability, T/C [22] 7.13% | viability, T/C [23] 6.18% | viability, T/C [24] 5.7% | viability, T/C [25] 7.69% | viability, T/C [26] 7.5% | viability, T/C [27] 9.02% | viability, T/C [28] 9.74% | viability, T/C [29] 6.25% | viability, T/C [30] 6.05% | viability, T/C [31] 2.13% | viability, T/C [32] 3.81% | viability, T/C [33] 3.72% | viability, T/C [34] 1.54% | viability, T/C [35] 2.76% | viability, T/C [36] 1%
< 31.6 nM: IC50 (second compound 0.316 µM) | IC50 (second compound 1 µM) | IC50 (second compound 3.16 µM) | IC50 (second compound 10 µM)
314 nM: IC50 (second compound 0.1 µM)
2100 nM: IC50 (second compound 0.0316 µM)
inactive: viability, T/C [1] 95.9% | viability, T/C [2] 88.2% | viability, T/C [3] 68.8% | viability, T/C [4] 71.6% | viability, T/C [5] 37.3% | viability, T/C [6] 27.3% | viability, T/C [7] 86.9% | viability, T/C [8] 61.7% | viability, T/C [9] 48.8% | viability, T/C [10] 42.6% | viability, T/C [11] 34.5% | viability, T/C [12] 22.8% | viability, T/C [13] 27.4% | viability, T/C [14] 22.6% | viability, T/C [15] 21.3% | viability, T/C [16] 15.6% | viability, T/C [17] 13.4%

COc1cccc2c1C(=O)c1c(O)c3c(c(O)c1C2=O)CC(O)(C(=O)CO)CC3OC1CC(N)C(O)C(C)O1 (stereo not given) + CN1CCN(c2cc(C(=O)Nc3cc4cc(-c5cnn(C)c5)ccc4cn3)ccn2)CC1
< 31.6 nM: IC50 (second compound 0.316 µM) | IC50 (second compound 1 µM) | IC50 (second compound 3.16 µM) | IC50 (second compound 10 µM)
active: viability, T/C [5] 9.76% | viability, T/C [6] 6.19% | viability, T/C [11] 11.4% | viability, T/C [12] 6.38% | viability, T/C [16] 4.91% | viability, T/C [17] 9.87% | viability, T/C [18] 7.68% | viability, T/C [19] 7.46% | viability, T/C [20] 5.6% | viability, T/C [21] 6.96% | viability, T/C [22] 8.8% | viability, T/C [23] 7.92% | viability, T/C [24] 4.27% | viability, T/C [26] 6.4% | viability, T/C [27] 4.58% | viability, T/C [28] 8.38% | viability, T/C [29] 7.51% | viability, T/C [30] 3.19% | viability, T/C [31] 2.99% | viability, T/C [32] 3.91% | viability, T/C [33] 1.4% | viability, T/C [34] 7.4% | viability, T/C [35] 3.49% | viability, T/C [36] 0.29%
inactive: viability, T/C [1] 79.8% | viability, T/C [2] 64.6% | viability, T/C [3] 114% | viability, T/C [4] 29.3% | viability, T/C [7] 69.3% | viability, T/C [8] 85.4% | viability, T/C [9] 96.8% | viability, T/C [10] 17.1% | viability, T/C [13] 36.8% | viability, T/C [14] 58% | viability, T/C [15] 15% | viability, T/C [25] 10.7%
658 nM: IC50 (second compound 0.0316 µM)
567 nM: IC50 (second compound 0.1 µM)

CCCS(=O)(=O)Nc1ccc(F)c(C(=O)c2c[nH]c3ncc(-c4ccc(Cl)cc4)cc23)c1F + CNC(=O)c1ccc(Nc2nc(OC3CCCC3)c3c(-c4ccc5nc(C)oc5c4)c[nH]c3n2)c(OC)c1
> 10000 nM: IC50 (second compound 0.0316 µM) | IC50 (second compound 0.1 µM) | IC50 (second compound 0.316 µM)
< 31.6 nM: IC50 (second compound 1 µM) | IC50 (second compound 3.16 µM) | IC50 (second compound 10 µM)
inactive: viability, T/C [1] 85.7% | viability, T/C [2] 86.2% | viability, T/C [3] 72.4% | viability, T/C [4] 90.2% | viability, T/C [5] 91% | viability, T/C [6] 73.5% | viability, T/C [7] 58% | viability, T/C [8] 63.7% | viability, T/C [9] 54% | viability, T/C [10] 57.4% | viability, T/C [11] 62% | viability, T/C [12] 68.4% | viability, T/C [13] 51.7% | viability, T/C [14] 49.9% | viability, T/C [15] 49.7% | viability, T/C [16] 64.8% | viability, T/C [17] 49.6% | viability, T/C [18] 56% | viability, T/C [19] 48% | viability, T/C [20] 42.3% | viability, T/C [21] 43.4% | viability, T/C [22] 45.7% | viability, T/C [23] 52.3% | viability, T/C [24] 50.9% | viability, T/C [25] 43.9% | viability, T/C [26] 42.1% | viability, T/C [27] 46.1% | viability, T/C [28] 44.2% | viability, T/C [29] 53% | viability, T/C [30] 45.7% | viability, T/C [31] 39.7% | viability, T/C [32] 39.1% | viability, T/C [33] 40.8% | viability, T/C [34] 34.7% | viability, T/C [35] 50.4% | viability, T/C [36] 51.1%

COC1C=CCC(C)C(C)S(=O)(=O)NC(=O)c2ccc3c(c2)N(CC2CCC21)CC1(CCCc2cc(Cl)ccc21)CO3 (stereo not given) + CNC(=O)c1ccc(Nc2nc(OC3CCCC3)c3c(-c4ccc5nc(C)oc5c4)c[nH]c3n2)c(OC)c1
2000 nM: IC50 (second compound 0.0316 µM)
142 nM: IC50 (second compound 0.1 µM)
inactive: viability, T/C [1] 103% | viability, T/C [2] 87.7% | viability, T/C [3] 64.8% | viability, T/C [4] 55.4% | viability, T/C [5] 48.4% | viability, T/C [6] 43.5% | viability, T/C [7] 58.7% | viability, T/C [8] 51% | viability, T/C [9] 47.7% | viability, T/C [10] 40.3% | viability, T/C [11] 34.8% | viability, T/C [12] 34.3% | viability, T/C [13] 46.3% | viability, T/C [14] 49.7% | viability, T/C [15] 36.7% | viability, T/C [16] 33.1% | viability, T/C [17] 35.8% | viability, T/C [18] 33.4% | viability, T/C [19] 51.2% | viability, T/C [20] 45.9% | viability, T/C [21] 36.9% | viability, T/C [22] 35.9% | viability, T/C [23] 46% | viability, T/C [24] 34.6% | viability, T/C [25] 43.2% | viability, T/C [26] 41.1% | viability, T/C [27] 33.4% | viability, T/C [28] 29.4% | viability, T/C [29] 30.9% | viability, T/C [30] 25.4% | viability, T/C [31] 40.1% | viability, T/C [32] 38.4% | viability, T/C [33] 32.1% | viability, T/C [34] 30.5% | viability, T/C [35] 35.9% | viability, T/C [36] 26.4%
< 31.6 nM: IC50 (second compound 0.316 µM) | IC50 (second compound 1 µM) | IC50 (second compound 3.16 µM) | IC50 (second compound 10 µM)
